In patent EP0715517B1, “ESTRENE STEROIDS AS NEU[…] CHANGE IN HUMAN HY[…] AND RELATED PHARMACEUTICAL COMPOSITIONS” (priority 1993, dated 1994):
“Also recorded” adds a separate entry of the source.

How the values were obtained:
[1] = test system: VNO; conditions: 2% lidocaine applied to the respiratory epithelium of the nasal septum; preliminary evidence, Monti-Bloch and Grosser 1991; cited from earlier work
[2] = test system: VNO; test: Comparison of the change in receptor potential induced by two Estrene steroids (Example 23); format: in vivo, human; conditions: 60 picograms; a subject; Fig. 5
Procedure: 60 picograms of each steroid and of a propylene glycol control were administered to a subject as described in Example 21.

[3] = test system: VNO; test: Skin temperature (ST) after VNO stimulation (Example 25); format: in vivo, human; conditions: 30 male subjects; p<0.01; Fig. 6G
Procedure: (§1) Cortical evoked activity was induced by VNO stimulation with vomeropherins, and olfactory stimulation with odorants delivered in 300 ms air pulses. It was recorded using standard electroencephalographic (EEG) electrodes placed at positions Cz-A1 and Tz-A1 of the international […] system; the ground electrode was placed on the mastoid process. Electrodermal activity (EDA) was recorded using standard 8 mm silver electrodes in contact with palmar skin of the medial and ring fingers respectively, through a conductive gel interface. Skin temperature (ST) was recorded by a small (1.0 mm) thermistor probe placed in the right ear lobe. Peripheral arterial pulse (PAP) was monitored with a plethysmograph attached to the tip of the index finger. Respiratory frequency (RF) was measured with an adjustable strain gauge placed around the lower thorax. All electrical signals were DC amplified, digitized (MP-100, Biopac Systems) and continuously monitored utilizing a computer. Statistical Analysis: EVGs or EOGS, peak-to-peak changes and frequency changes of other parameters were measured and statistically analyzed. The significance of the results was determined by either using paired t-tests or analysis of variance (ANOVA). […] Recordings of the EVG were performed on 30 men and 30 women (ages 20 to 45). Vomeropherins were diluted and applied as 1 second pulses to the VNO with […] intervals between pulses when questioned, the subjects were not able to "smell" or otherwise consciously detect any of the vomeropherins.

[4] = test system: VNO; test: Cortical evoked activity (EEG, alpha cortical activity) after VNO stimulation (Example 25); format: in vivo, human; conditions: males, 200 fmoles, Fig. 6E
Procedure: as §1
[…] […] Synchronization of the EEG was sustained for 1.5 to 2.7 minutes after application of a single pulse of active substance.

[5] = test system: VNO; test: Electro-vomeronasogram (EVG) (Example 25); format: in vivo, human; conditions: male subjects (ages 20 to 38); 100 fmoles; 1 second pulses; p<0.01; Fig. 6A
Procedure: The following electrophysiological studies were performed in 60 clinically normal human volunteers of both sexes (30 male and 30 female) whose ages ranged from 20 to 45 years. No anesthetics were used, and female subjects were excluded if pregnant.
The stimulation and recording system consists of a "multifunctional miniprobe" described elsewhere (Monti-Bloch, L. and Grosser, B.l. (1991) "Effect of putative pheromones on the electrical activity of the human vomeronasal organ and olfactory epithelium," J. Steroid Biochem. Molec. Biol. 39:573-582.). The recording electrode is a 0.3 mm silver ball attached to a small (0.1 mm) silver wire insulated with Teflon© the surface of the electrode is first treated to produce a silver chloride interface, and is then covered with gelatin It is positioned within a small caliber Teflon© catheter (dia = […]) such that the tip of the electrode protrudes approximately 2 mm. The Teflon© catheter is 10 cm in length and constitutes the terminal extension for a multichannel delivery system which delivers a continuous air stream carrying discreet pulses of chemosensory stimuli. The air stream first passes into a small chamber and is bubbled through a solution containing either a vomeropherin or an olfactant in a diluent or the diluent alone. A solenoid is used to rapidly redirect the air stream from the chamber to a route which bypasses the chamber. This creates a discreet pulse of stimulant in the air stream. A second, outer Teflon® tube with a diameter of 2 mm surrounds the catheter-electrode assemblage, and its central end is connected to an aspirator that provides continuous suction of 3ml/s. This concentric arrangement of the outer suction tube allows the emitted chemosensory stimuli to be localized to an area we call a "minifield" (approx. dia = 1 mm), and it avoids diffusion of substances either to the area outside the intended stimulation site or into the respiratory system. The entire stimulating and recording assemblage may be positioned either on the neurosensory epithelium within the VNO, or on the surface of the olfactory or respiratory epithelium. Electro-vomeronasogram (EVG): Recordings are carried out in a quiet room with the subject supine; the multifunctional miniprobe is initially stabilized within the nasal cavity using a nasal retractor placed in the vestibule. Reference and ground electrodes consist of silver discs (8 mm), both of which are positioned on the glabella.
The entrance to the VNO, or vomeronasal pit, is identified by first dilating the nasal aperture and vestibule. A 6x magnifying binocular loupe with halogen illumination is then used to introduce the tip of the Teflon® catheter and recording electrode assemblage into the VNO opening where it is stabilized at an approximate depth of 1 mm within the vomeronasal passage. Optimal placement of the recording electrode is signaled after testing for an adequate depolarization in response to a test substance.
Electrical signals from the recording electrode are fed to a DC amplifier after which they are digitized, computer monitored, and stored. The peak-to-peak amplitude of the signals is measured, and the area under the depolarization wave is integrated, while continuously monitoring the signal both on the computer screen and on a digital oscilloscope. Artifacts produced by respiratory movements are deleted by training the subjects to practice mouth breathing with velopharyngeal closure. Chemosensory Stimulants: Olfactory test substances are cineole, and 1-carvone; vomeropherins are A, B, C, E and F. (Vomeropherins were supplied by Pherin Corporation, Menlo Park, California), Samples of vomeropherins In concentration of 25-800 fmoles are delivered in the continuous air stream for durations from 300 milliseconds to 1 second. Usually, intervals of 3 to 5 minutes separated each series of short test pulses. […]

Structure (SMILES) | effect of local anesthetic on the EVG [1] | change in receptor potential [2] | skin temperature (ST) [3] | alpha cortical activity ([4]; air pulses 300 ms to 1 sec) | latency of increase in alpha cortical activity [4] | EVG average response (mean) [5]
CCN(CC)CC(=O)Nc1c(C)cccc1C [lidocaine] | neither blocks nor diminishes the EVG | – | – | – | – | –
COc1ccc2c(c1)CC[C@@H]1[C@@H]2CC[C@]2(C)C=CC[C@@H]12 [D, 3-Methoxy-Estra-1,3,5(10),16-tetraene] | – | greater change in receptor potential than did 1,3,5(10),16-Estratetraen-3-yl acetate | significant temperature decrease | significantly increased alpha cortical activity; also recorded: strongest effect | 270 to 380 ms | 15.1 mV
